Structures are written as SMILES.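 In this assay, cells in 96-well plates receive the compound at five concentrations for 48 hours. Endpoints are linearly interpolated between the surrounding concentrations. GI50 is the concentration that inhibits growth by half. At the TGI there is no net growth.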

Here are results for 21 compounds from PubChem BioAssay (NCI).

Some test systems named below: DMS 114 small cell lung; RXF-631 renal; KM20L2 colon; XF 498 CNS; LXFL 529 NSCLC; DLD-1 colon; SNB-78 CNS; HOP-18 NSCLC; P388 leukemia; MDA-N; SN12K1 renal; P388/ADR leukemia.
Common to all, as to assay: NCI tumour cell line growth inhibition, 48 h

As to `CCN1C2=NC(=O)N(C)C(=O)C2(Cl)C(C(SC)S(=O)(=O)c2ccc(C)cc2)c2ccccc21` (centres undefined), the TGI in the assay with DMS 114 small cell lung is over 100 µM; in the assay on RXF-631 renal, 51.2 µM; in the assay with KM20L2 colon, over 100 µM; with XF 498 CNS, over 100 µM; in the assay with LXFL 529 NSCLC, 59.3 µM; in the assay with DLD-1 colon it was over 100 µM. The compound further had a TGI in the assay on SNB-78 CNS of 58.3 µM.
`COC(=O)C1=C(C)N(NC(N)=O)C2(N)N(NC(N)=O)C(C)=C(C(=O)OC)C12C(=O)OC` (centres undefined): the TGI in the assay on DMS 114 small cell lung, in the assay on RXF-631 renal, in the assay on KM20L2 colon, in the assay on HOP-18 NSCLC, in the assay on XF 498 CNS and with LXFL 529 NSCLC was over 100 µM each time. For the same compound, the TGI in the assay on DLD-1 colon and with SNB-78 CNS was over 100 µM each time.
Turning to `O=C1NC(=S)NC(=O)C1=Cc1cc2c(cc1[N+](=O)[O-])OCO2`, the TGI in the assay with DMS 114 small cell lung was 87.3 µM; with RXF-631 renal, over 100 µM; with KM20L2 colon it was over 100 µM; with HOP-18 NSCLC, over 100 µM; with DLD-1 colon, over 100 µM; in the assay with SNB-78 CNS, over 100 µM.
Turning to `CC(=O)OC1C(=O)C(O)C(C)OC1O[C@@H]1C[C@@]2(C)[C@@H]3CC=C4[C@@H](C[C@H](O)C(=O)C4(C)C)[C@]3(C)C(=O)C[C@]2(C)[C@H]1[C@@](C)(O)C(=O)/C=C/C(C)(C)O` (some centres undefined), the TGI in the assay with RXF-631 renal was 7.85 µM; with KM20L2 colon, 8.3 µM; with HOP-18 NSCLC, 4.9 µM; in the assay with XF 498 CNS, 0.64 µM; with LXFL 529 NSCLC it was over 10 µM; with DLD-1 colon it was over 10 µM. Further, the GI50 in the assay on SNB-78 CNS was 0.0626 µM.
`CCOc1ccc(N=Cc2cccc3cccnc23)cc1`: the TGI in the assay on DMS 114 small cell lung, in the assay on RXF-631 renal, in the assay with KM20L2 colon, in the assay with HOP-18 NSCLC, with XF 498 CNS and with LXFL 529 NSCLC was over 100 µM each time. Also, the TGI in the assay with DLD-1 colon and in the assay with SNB-78 CNS was over 100 µM each time.
Turning to `CC(O)/C=C/C(CCC(C)CO)C(C)C` (centres undefined), the TGI in the assay on DMS 114 small cell lung, in the assay on RXF-631 renal, in the assay on XF 498 CNS, in the assay with LXFL 529 NSCLC, with DLD-1 colon and with SNB-78 CNS was over 100 µM each time.
For `O=C1C(Cl)C(c2cccc(O)c2)N1n1cnc2ccccc2c1=O` (centres undefined), the TGI with DMS 114 small cell lung, in the assay on KM20L2 colon, in the assay on HOP-18 NSCLC, in the assay on XF 498 CNS, in the assay on LXFL 529 NSCLC and with DLD-1 colon was over 100 µM in each case. This compound gave a TGI in the assay with SNB-78 CNS of over 100 µM.
For the compound `COc1ccc2[nH]c(-c3ccccn3)cc(=O)c2c1`, the GI50 was 22.6 µM in the assay with DMS 114 small cell lung and 35.1 µM with KM20L2 colon. For the same compound, the TGI was 71.4 µM in the assay on DMS 114 small cell lung; over 100 µM with RXF-631 renal; over 100 µM in the assay on KM20L2 colon; over 100 µM with HOP-18 NSCLC; over 100 µM in the assay on LXFL 529 NSCLC; over 100 µM with DLD-1 colon. Moreover, the TGI in the assay with SNB-78 CNS was over 100 µM.
For the compound `Cc1cccc(C(C)(C)C)c1NC(=O)C(=O)C(C(=O)/C=C\c1ccccc1)C1OC(=O)c2ccccc21` (centres undefined), the TGI with DMS 114 small cell lung, in the assay on RXF-631 renal, in the assay with KM20L2 colon, in the assay on HOP-18 NSCLC, with XF 498 CNS and with LXFL 529 NSCLC was over 100 µM in each case. Also, the TGI in the assay on DLD-1 colon and with SNB-78 CNS was over 100 µM throughout.
For `C=C1[C@@H](C)[C@H]2[C@H](Cc3ccccc3)NC(=O)[C@]23OC(=O)/C=C/[C@H](O)CCC[C@@H](C)C/C=C/[C@H]3[C@@H]1O`, the TGI in the assay with DMS 114 small cell lung was over 100 µM; with KM20L2 colon, over 100 µM; with HOP-18 NSCLC, 3.03 µM; in the assay on XF 498 CNS it was 8.97 µM; in the assay with P388 leukemia, over 87.1 µM; with MDA-N, over 100 µM. Moreover, the TGI was 41.1 µM in the assay on SN12K1 renal, over 100 µM with DLD-1 colon, 73.4 µM in the assay on P388/ADR leukemia and 15.2 µM in the assay with SNB-78 CNS.
As to `C/C(O)=C(\N=O)C(=O)NCCc1ccccc1`, the TGI with DMS 114 small cell lung was over 60 µM; in the assay on KM20L2 colon, over 100 µM; in the assay with HOP-18 NSCLC, over 100 µM; in the assay on XF 498 CNS it was over 31.6 µM; in the assay with LXFL 529 NSCLC, over 100 µM; with DLD-1 colon, over 100 µM. This compound also registered a TGI with SNB-78 CNS of over 100 µM.
With `CCCN(CCCCC(NC(C)=O)C(=O)NCc1ccccc1)C(=O)NCCCl` (centres undefined), the TGI in the assay with DMS 114 small cell lung, in the assay on RXF-631 renal, in the assay with KM20L2 colon, in the assay on HOP-18 NSCLC, with XF 498 CNS and in the assay on LXFL 529 NSCLC was over 100 µM in each case. Moreover, in the assay with DLD-1 colon, the TGI is over 100 µM.
For `O=C(/C=C/c1ccc(OCC(=O)N2CCN(c3ccccc3)CC2)cc1)c1ccc(Cl)cc1`, the TGI in the assay on DMS 114 small cell lung, with RXF-631 renal, in the assay with KM20L2 colon, with HOP-18 NSCLC, with MDA-N and with LXFL 529 NSCLC was over 100 µM in each case. Also, the TGI was over 100 µM in the assay with DLD-1 colon and 82.8 µM in the assay with SNB-78 CNS.
For `COC(=O)C1CC(C(=O)OC)c2nc3cc(C)ccc3nc21` (centres undefined), the TGI in the assay with DMS 114 small cell lung, with RXF-631 renal, with KM20L2 colon, in the assay with HOP-18 NSCLC, with XF 498 CNS and with LXFL 529 NSCLC was over 100 µM throughout. In addition, the TGI in the assay on DLD-1 colon and with SNB-78 CNS was over 100 µM throughout.
On to `CCCCCCCCCCCCCCCCCC(=O)OCC(CN(C)CCN(C)C)OC(=O)CCCCCCCCCCCCCCCCC` (centres undefined), for which the TGI was over 100 µM in the assay on DMS 114 small cell lung; over 100 µM in the assay with RXF-631 renal; over 100 µM in the assay with KM20L2 colon; 89 µM in the assay on HOP-18 NSCLC; over 100 µM in the assay with LXFL 529 NSCLC; over 100 µM in the assay on DLD-1 colon. The TGI in the assay on SNB-78 CNS is over 100 µM.
As to `O=S(=O)([O-])c1cccc2cccc(N=Cc3ccccc3[O-])c12.O=S(=O)([O-])c1cccc2cccc(N=Cc3ccccc3[O-])c12.[O]=[U]=[O]`, the GI50 in the assay with DMS 114 small cell lung is 54 µM; in the assay on KM20L2 colon it was over 100 µM; with HOP-18 NSCLC, over 100 µM; in the assay with XF 498 CNS, over 100 µM; in the assay with LXFL 529 NSCLC it was 54.5 µM; in the assay on DLD-1 colon, over 100 µM. Moreover, the GI50 in the assay with SNB-78 CNS is over 100 µM. Further, the TGI in the assay with DMS 114 small cell lung, with KM20L2 colon, with HOP-18 NSCLC, in the assay with XF 498 CNS, in the assay on LXFL 529 NSCLC and in the assay on DLD-1 colon was over 100 µM each time. In addition, the TGI with SNB-78 CNS was over 100 µM.
Turning to `Cc1ccccc1-c1c(N)nc(NC#N)nc1C(=O)Nc1ccccc1`, the TGI with DMS 114 small cell lung, with RXF-631 renal, in the assay with KM20L2 colon, in the assay on HOP-18 NSCLC, with LXFL 529 NSCLC and in the assay with DLD-1 colon was over 100 µM throughout. The TGI in the assay on SNB-78 CNS is over 100 µM.
Regarding `Clc1ccc(Cl)c2[s+]snc12`, the TGI in the assay on DMS 114 small cell lung was over 66.8 µM; in the assay with RXF-631 renal, over 100 µM; with KM20L2 colon it was over 100 µM; in the assay on HOP-18 NSCLC, over 100 µM; in the assay with XF 498 CNS, over 100 µM; in the assay on LXFL 529 NSCLC, over 100 µM. In addition, the TGI in the assay with DLD-1 colon and in the assay with SNB-78 CNS was over 100 µM each time.
On to `O=C(O)CNc1c2ccccc2nc2ccccc12`, for which the TGI in the assay with DMS 114 small cell lung, with RXF-631 renal, in the assay with KM20L2 colon, with XF 498 CNS, in the assay with LXFL 529 NSCLC and with DLD-1 colon was over 100 µM each time.
For `CSc1nc(NC2OCC(OC(C)=O)C(OC(C)=O)C2OC(C)=O)c2c(OC(C)=O)c(C)c(=O)oc2n1` (centres undefined), the TGI in the assay with DMS 114 small cell lung, in the assay with RXF-631 renal, in the assay on KM20L2 colon, with HOP-18 NSCLC, in the assay with XF 498 CNS and with LXFL 529 NSCLC was over 100 µM throughout. Further, the TGI in the assay on DLD-1 colon and with SNB-78 CNS was over 100 µM in each case.
As to `COC(=O)C(CCS(=O)(=O)CC(=O)C(=O)Nc1cccc(C(C)=O)c1)C(=O)OC`, the TGI in the assay on DMS 114 small cell lung is over 55.2 µM; in the assay on RXF-631 renal it was over 100 µM; in the assay on KM20L2 colon it was over 100 µM; with HOP-18 NSCLC, over 100 µM; with XF 498 CNS it was over 100 µM; in the assay with LXFL 529 NSCLC, over 100 µM. Further, the TGI with DLD-1 colon and with SNB-78 CNS was over 100 µM each time.
